In patent publication US20220133729A1, “COMPOSITIONS AND METHODS FOR TREATING BASAL FOREBRAIN DISEASE” (EIP Pharma, Inc., priority 2019, published 2022):

Tests used:
Ts2 mice = Ts2 mice treated 28 days with neflamapimod; medial septal nucleus ChAT+ neurons quantitated; type: in vivo; conditions: 3 mg/kg twice-daily
Experimental: Wild-type (WT) or Ts2 mice treated for 28 days, twice-daily, with vehicle (1% PluronicF108) or 3 mg/kg neflamapimod in vehicle (n=8-10 per group; 1:1 female/male). Treatment initiated at 4.7-6.4 months of age, when cholinergic neuronal loss is developing in Ts2 mice. Cortical Rab5+ endosomal number and size, and medial septal nucleus (MSN) cholineacetyltransferase (ChAT)+ neurons quantitated.

subjects with DLB = assay: Phase 2 randomized, double-blind, placebo-controlled study of neflamapimod in subjects with DLB; type: in vivo, human; conditions: DLB patients
Description: A Phase 2, multi-center, randomized, double-blind, placebo-controlled study is run of neflamapimod versus matching placebo (randomized 1:1) administered with food for 16 weeks in subjects with DLB. The primary objective is to evaluate the effect of neflamapimod on cognitive function as assessed in a study-specific COGSTATE Neuropsychological Test Battery (NTB). Secondary endpoints include the Clinical Dementia Rating Scale-Sum of Boxes (CDR-SB), Mini-Mental State Examination (MMSE), Neuropsychiatric Inventory (NPI-10), Timed Up and Go Test, and electroencephalogram (EEG) as a potential biomarker for DLB.
Neflamapimod 40 mg capsules are administered orally, BID or TID with food for 16 weeks; subjects will follow the BID regimen if weighing <80 kg or the TID regimen if weighing ≥80 kg. A placebo comparator is 40 mg matching placebo capsules administered orally, BID or TID with food for 16 weeks; subjects will follow the BID regimen if weighing <80 kg or the TID regimen if weighing ≥80 kg.
A primary outcome measure is a composite score of a study-specific COGSTATE Neurological Test Battery (NTB) including the COGSTATE Letter Fluency Test and Category Fluency Test at 16 weeks. A change from Baseline to Week 16 in the composite score of a study-specific Cog-state Neurological Test Battery (NTB), including assessments of attention, executive function, and visuospatial function in neflamapimod treated-subjects as compared to the placebo-treated subjects, are analyzed using the Mixed Model Repeated Measures (MMRM) analysis method. The following six tests are included in the composite: (1) COGSTATE Detection test (DET), (2) COGSTATE Identification test (IDN), (3) COGSTATE One Card Learning test (OCL), (4) COGSTATE One Back test (ONB), (5) Letter Fluency Test, (6) Category Fluency Test (CFT). Each score on the individual tests will be converted to a z-score, and then a total z-score will be calculated, in which each test is weighted equally. The change in total z-score in neflamapimod vs. placebo-recipients is analyzed. […]

Structure (SMILES): O=c1ncn2nc(Sc3ccc(F)cc3F)ccc2c1-c1c(Cl)cccc1Cl [neflamapimod]
- cholinergic neuron degeneration in the medial septal nucleus (Ts2 mice): ameliorated
- morphology (size) of ChAT+ neurons in the medial septal nucleus (MSN) (Ts2 mice; oral): normalizes
- ChAT-positive neuron number in the medial septal nucleus (Ts2 mice; oral, stereological quantification): normalizes
- Mean change from baseline to Week 8, MMSE (subjects with DLB; 40 mg TID dosing regimen, increase represents improvement, p=0.033 vs placebo): +1.07
- Mean change from baseline to Week 4, Letter Fluency Test (LFT) (subjects with DLB; 40 mg capsules BID or TID, increase represents improvement, p=0.027 vs placebo, preliminary assessment): +3.0
- Mean change from baseline to Week 4, COGSTATE Detection test (DET) (subjects with DLB; 40 mg capsules BID or TID, reduction represents improvement, p=0.031 vs placebo, preliminary assessment): −0.024
